The target in data set [1] is T1, human SULT2A1 (Homo sapiens, UniProt Q06520).
T1 sequence (Q06520 1-285): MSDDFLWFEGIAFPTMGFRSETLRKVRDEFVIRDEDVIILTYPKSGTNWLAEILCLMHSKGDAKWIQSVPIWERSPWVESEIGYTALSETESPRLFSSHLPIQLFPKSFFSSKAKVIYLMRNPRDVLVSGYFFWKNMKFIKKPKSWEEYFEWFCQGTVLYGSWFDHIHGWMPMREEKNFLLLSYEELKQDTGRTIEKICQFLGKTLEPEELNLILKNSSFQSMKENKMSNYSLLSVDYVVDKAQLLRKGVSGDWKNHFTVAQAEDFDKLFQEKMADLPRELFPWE
It counts as biochemical. The conditions noted are these: for rate of 3-sulfate formation in the absence of celecoxib: 2 μM 35S-PAPS for 6D-E2, 20 μM PAPS for the others; for SULT2A1 enzyme activity toward the substrate: control activity; for rate of 17-sulfate formation in the absence of celecoxib: 2 μM 35S-PAPS for 6D-E2, 20 μM PAPS for 17β-Eqn.

The conditions of data set [2]: calculated, following a therapeutic dose of 200 mg; cited from earlier work.
Setting [3] is: No celecoxib, 0.16 μM E2, PAPS 20 μM.
Setting [4] is: No celecoxib, 0.4 μM E2, PAPS 20 μM.
Where [5] appears, read: Celecoxib (50 μM) added after PAPS (20 μM), 0.16 μM E2.
The mark [6] stands for this setting: Celecoxib (50 μM) added after PAPS (20 μM), 0.4 μM E2.
The mark [7] stands for this setting: Celecoxib (50 μM) added before PAPS (20 μM), 0.16 μM E2.
[8] abbreviates: Celecoxib (50 μM) added before PAPS (20 μM), 0.4 μM E2.

Like-named read-outs stand apart in the source and are kept apart here.

Consider `C[C@]12CC[C@@H]3c4ccc(O)cc4CC[C@H]3[C@@H]1CC[C@@H]2O` [17β-E2, 17β-estradiol], for which the “17-sulfate produced relative to 3-sulfate in the absence of celecoxib” value in data set [1] (0.4 μM substrate, Figure 6G) is given as “around 76 times”. Moreover, in data set [1] (setting [3]), the “Product formed, 3-sulfate” value came out at 150 pmol/min/mg protein; the “Product formed, 17-sulfate” value is recorded as “Not detected”; the “Product formed, Total sulfates” value was 150 pmol/min/mg protein. Moreover, in data set [1] (setting [4]), the “Product formed, 3-sulfate” value is 306 pmol/min/mg protein; the “Product formed, 17-sulfate” value is recorded as “Not detected”; the “Product formed, Total sulfates” value is 306 pmol/min/mg protein.
In the case of `C[C@]12CC=C3c4ccc(O)cc4CC[C@H]3[C@@H]1CC[C@@H]2O` [9D-E2, 9-dehydroestradiol], the “rate of 3-sulfate formation in the absence of celecoxib” value in data set [1] (0.4 μM substrate) is reported as 14 pmol/min/mg protein.
On to `C[C@]12CC[C@H]3[C@@H](CCC4=CC(=O)CC[C@@]43C)[C@@H]1CC[C@H]2O` [Epi-T, epi-testosterone], for which the “SULT2A1 enzyme activity toward the substrate” value in data set [1] (0.4 μM substrate) is given as 8–9 nmol sulfate/min/mg protein. In addition, the “rate of sulfonation of Epi-T relative to T” value in data set [1] (control activities, 0.4 μM substrate) is listed as 7 times.
On to `C[C@]12CC[C@@H]3c4ccc(O)cc4C=C[C@H]3[C@@H]1CC[C@@H]2O` [6D-E2, 6-dehydroestradiol], for which, in data set [1] (0.4 μM substrate), the “rate of 17-sulfate formation in the absence of celecoxib” value was determined as 2 pmol/min/mg protein and the “rate of 3-sulfate formation in the absence of celecoxib” value is on record as 51 pmol/min/mg protein.
Regarding `C[C@]12CC[C@@H]3c4ccc(O)c(O)c4CC[C@H]3[C@@H]1CC[C@@H]2O` [4-OH-E2, 4-hydroxyestradiol], the “rate of 3-sulfate formation in the absence of celecoxib” value in data set [1] (0.4 μM substrate) was 15 pmol/min/mg protein.
For the compound `C[C@]12CC[C@H]3[C@@H](CC=C4C[C@@H](O)CC[C@@]43C)[C@@H]1CC[C@@H]2O` [AD, 5-androsten-3β,17β-diol], the “SULT2A1 enzyme activity toward the substrate” value in data set [1] (0.4 μM substrate) is on record as 8–9 nmol sulfate/min/mg protein.
Take `C[C@]12CC[C@H]3C(=CCc4cc(O)ccc43)[C@@H]1CC[C@@H]2O` [17β-Eq, 17β-dihydroequilin]: the “rate of 3-sulfate formation in the absence of celecoxib” value in data set [1] (0.4 μM substrate) was determined as 46 pmol/min/mg protein.
The same measure, in the same setting: the result for `C[C@]12CC[C@@H]3c4cc(O)c(O)cc4CC[C@H]3[C@@H]1CC[C@@H]2O` [2-OH-E2, 2-hydroxyestradiol] reads 2 pmol/min/mg protein.
In the case of `C[C@]12CC[C@H](O)CC1=CC[C@@H]1[C@@H]2CC[C@]2(C)C(=O)CC[C@@H]12` [DHEA, dehydroepiandrosterone], the “SULT2A1 enzyme activity toward the substrate” value in data set [1] (0.4 μM substrate) is 8–9 nmol sulfate/min/mg protein.
For the compound `C[C@]12CCc3c(ccc4cc(O)ccc34)[C@@H]1CC[C@@H]2O` [17β-Eqn, 17β-dihydroequilenin], in data set [1] (0.4 μM substrate), the “rate of 17-sulfate formation in the absence of celecoxib” value is listed as 11.4 pmol/min/mg protein and the “rate of 3-sulfate formation in the absence of celecoxib” value is given as 56 pmol/min/mg protein.
Regarding `Cc1ccc(-c2cc(C(F)(F)F)nn2-c2ccc(S(N)(=O)=O)cc2)cc1` [celecoxib], the “effect on sulfonation of E1” value in data set [1] (0–80 μM celecoxib, 0.4 μM E1, p > 0.05, ANOVA) is “not affected significantly”. In addition, the “celecoxib concentration at which 4-OH-E2 17-sulfate and 3-sulfate curves cross” value in data set [1] (0.4 μM 4-OH-E2, 20 μM PAPS) is listed as “approximately 30 μM”. For the same compound, the “enhancement of total sulfate product formation from 6D-E2” value in data set [1] (50 μM celecoxib, 0.4 μM 6D-E2) is given as “over 8 fold”. Besides, the “increase of total product formation from 9D-E2” value in data set [1] (80 μM celecoxib, 0.4 μM 9D-E2) is on record as 9.4 times. The “stimulation of 17β-Eqn–17-sulfate formation compared with absence of celecoxib” value in data set [1] (80 μM celecoxib, 0.4 μM 17β-Eqn) was 34 fold. Also, in data set [1] (0.05, 0.2 and 0.4 μM 17β-E2), the “celecoxib concentrations at which 17β-E2–3-S decreased” value is at least 50 µM. In addition, the “celecoxib concentration at which stimulation of 17β-E2–17-S formation peaked” value in data set [1] (0.2 and 0.4 μM 17β-E2) is 50 µM. For the same compound, the “Product formed, 3-sulfate” value was determined as 85 pmol/min/mg protein in data set [1] (setting [5]), 177 pmol/min/mg protein in data set [1] (setting [6]), 155 pmol/min/mg protein in data set [1] (setting [7]) and 363 pmol/min/mg protein in data set [1] (setting [8]). The “Product formed, 17-sulfate” value in data set [1] (setting [5]) is reported as 199 pmol/min/mg protein; in data set [1] (setting [6]), 387 pmol/min/mg protein; in data set [1] (setting [7]), 432 pmol/min/mg protein; in data set [1] (setting [8]), 1076 pmol/min/mg protein. The “Product formed, Total sulfates” value in data set [1] (setting [5]) was 284 pmol/min/mg protein; in data set [1] (setting [6]), 564 pmol/min/mg protein; in data set [1] (setting [7]) it was 587 pmol/min/mg protein; in data set [1] (setting [8]), 1439 pmol/min/mg protein. In addition, the “effect on sulfonation of DHEA or AD at low concentrations” value in data set [1] (celecoxib 0–40 μM) was “did not affect”. Also, the “effect on 17β-Eq-3-sulfate formation” value in data set [1] (celecoxib range studied (0–80 μM), 0.4 μM 17β-Eq) was “No inhibition”. For the same compound, the “rate of 3-sulfate formation when inhibited by celecoxib (Figure 6G substrate)” value in data set [1] (data not shown) is under 1 pmol/min/mg protein. Besides, the “increase of total sulfonation of 6D-E2, 17β-Eqn and 9D-E2” value in data set [1] (summary in discussion) was “over 8 fold”. Further, in data set [1] (up to 80 μM celecoxib, 0.4 μM 3Me-E2, not saturated at 80 μM), the “effect on formation of 3Me-E2–17β-sulfate” value is “stimulated the formation of 3Me-E2–17β-sulfate in a concentration dependent manner”. The “maximum liver concentration of celecoxib” value in data set [2] was 230 µM.

The record behind these values is publication PMC4501872 (The Journal of steroid biochemistry and molecular biology, 2015).
